{"source": "patent US7417039B2", "about": "“Use of substituted azetidinone compounds for the treatment of sitosterolemia” (Schering Corporation, priority 2001, dated 2008)", "key": {"Sitosterol Absorption": {"system": "Sitosterol Absorption", "assay": "In vivo evaluation in mice: [3H]-sitosterol absorption and hepatic accumulation", "procedure": "In vivo activity of compound VIII in mice was determined by the following procedure:\nMale ApoE knockout mice, age 6 wks, were received from Jackson Laboratory along with age-matched C57BL/J. The mice were housed 5 per cage, normal light cycle, normal diet. Twenty-six mice of each variety were weighed and housed, 1 per cage, in suspended wire cages with normal light cycle, normal diet. After three days, the mice were reweighed. Based on body weight, the mice were divided into 5 groups for each type of treatment:\nControl (corn oil) and Compositions including Compound VIII at 0.3, 1, 3, and 10 mg/kg of body weight per day.\nPreparation of Compositions including Compound VIII based on 22 g average mouse body weight:\nThe mice were gavaged using a feeding needle 30 min before receiving ^14C-cholesterol (NEN, NEC 018) and ^3H-sitosterol (NEN, CUS 030T). The radioactive dose was prepared from: • 114 μL ^3H-sitosterol stock (1 μCi/μL in ethanol); • 1.425 mL ^14C-cholesterol stock (40 μCi/mL in ethanol); • 5.7 mg cholesterol, Sigma C 8667; • 5.7 mg β-sitosterol, Sigma, S 1270; • The ethanol was removed under N2; • 5.7 ml of corn oil was added, and the mixture was warmed to 60° C.; and shaken for 1 hr.\nEach 0.1 ml dose contained 2 μCi ^3H-sitosterol, 0.1 mg cold (non radioactive) sitosterol; 1 μCi ^14C-cholesterol, and 0.1 mg cold (non radioactive) cholesterol. Radioactive content was verified: 5×10 μl counted in Beckman LSC (liquid […] counter). Tritiated sitosterol was used as an “unabsorbable” marker to compare to the absorption of [^14C]-cholesterol in a mouse fecal isotope ratio cholesterol absorption model.\nOn the 4th, 5th, and 6th days, feces were collected and stored at −20° C. in vials just before dosing with Control or Compound VIII late in the day. Termination of the experiment on the 7th day involved sacrifice by exsanguination, removal and weighing of the liver. 3×˜250 mg samples of liver were put in vials. The liver samples were digested with 1 ml of 1N NaOH at 60° overnight, neutralized with 0.1 ml 12N HCl and counted for ^14C and ^3H. The blood samples were allowed to clot at room temp for 1 hr, then centrifuged at 1000 G for 15 min. The serum was analyzed for total cholesterol (see Wako C I I; see Allain C C, Poon L S, Chan C S G, Richmond W, Fu P C. Enzymatic Determination of Total Serum Cholesterol. Clin. Chem. 1974; 20:470-475, which is incorporated by reference herein) and radioactivity (2×50 μL). Fecal samples were analyzed for radioactivity by combustion in a Packard Oxidizer followed by Beckman LSC."}, "[1]": {"system": "plasma plant sterols (sitosterol and campesterol) and LDL-C", "assay": "In vivo evaluation in humans: randomized, double-blind, placebo-controlled 8-week trial in homozygous sitosterolemia", "design": "species or system human", "settings": "homozygous sitosterolemia patients, 8 weeks", "procedure": "In a randomized multicenter, double-blind, placebo-controlled, 8-week trial, 37 human patients previously diagnosed with homozygous sitosterolemia were randomized to receive Compound VIII (n=30) or placebo (n=7): • Treatment A—Compound VIII given orally as 1 dose (10 mg) per day, • Treatment B—Placebo (matching image of Compound VIII 10 mg) given orally as 1 dose per day, every morning for 8 consecutive weeks.\nDuring the trial, subjects were instructed to maintain (as a minimum) a National Cholesterol Education Program (NCEP) Step 1 diet\nPatients were instructed to maintain a diary of food intake and monitored prior to randomization, at baseline and during therapy. Results of the central diet analysis for each subject were reported as a RISCC score (Ratio of Ingested Saturated fat and Cholesterol to Calories) and as dietary components. RISCC scores indicate the potential for a diet to influence plasma lipid levels. A score ranging from 14 to 20 correlates with a NCEP step 1 diet.\nLow-Density-Lipoprotein-Cholesterol (LDL-C) results were reported as direct LDL-C (plasma concentration was determined following a standard ultra centrifugation/precipitation procedure; lipid and lipoprotein analysis, see Manual of Laboratory Operations: Lipid Research Clinics Program Report. Washington, D.C.: US Department of Health, Education, and Welfare publication; 1974. NIH 75-628, vol 1, which is incorporated by reference herein or beta-quantification) and calculated LDL-C (plasma concentration; based on Freidewald equation: LDL-C=Total cholesterol minus (Triglycerides divided by 5) minus High-density-lipoprotein cholesterol (HDL-C)).\nTotal cholesterol and Triglycerides were determined enzymatically using a Hitachi 747 analyzer; see, Steiner P M, Freidel J, Bremner W F, Stein E A: Standardization of micromethods for plasma cholesterol, triglyceride and HDL-cholesterol with the Lipid Clinics' methodology [abstract]. J Clin Chem Clin Biochem 1981;19:850, which is incorporated by reference herein.\nHDL-C was determined enzymatically after heparin and magnesium precipitation; see, Steele W B, Koehle D F, Azar M M, Blaszkowski T P, Kuba K, Dempsey M E: Enzymatic determinations of cholesterol in high density lipoprotein fractions prepared by precipitation technique. Clin Chem 1976;22:98-101, which is incorporated by reference herein.\nPlasma plant sterols (sitosterol and campesterol) and LDL-C were assessed at baseline (Day 1) and at endpoint (average of Weeks 6 and 8 values). See: Salen, Gerald; Shore, Virgie; Tint, G S; Forte, T: Shefer, S; Horak, I; Horak, E; Dayal, B; Nguyen, L.; Batta, A K; Lindgren, F T; Kwiterovich, Jr, P O, “Increased sitosterol absorption, decreased removal and expanded body pools compensate for reduced cholesterol synthesis in sitosterolemia with xanthomatosis”, J Lipid Res, Vol. 30, pp 1319-30, (1989) and Lutjohann, D; Bjorkhem, I; Beil, U F, and von Bergmann, K, “Sterol absorption and sterol balance in phytosterolemia evaluated by deuterium-labeled sterols: effect of sitostanol treatment” J Lipid Res. Vol. 36:(8), pp 1763-73, (1995), each of which is incorporated by reference herein."}, "[2]": {"settings": "10 mg orally once daily, endpoint = average of Weeks 6 and 8"}}}
{"smiles": "O=C1[C@H](CC[C@H](O)c2ccc(F)cc2)[C@@H](c2ccc(O)cc2)N1c1ccc(F)cc1", "note": "[Compound VIII, ezetimibe]", "values": [{"measurement": "% of administered dose absorbed of [^3H]-sitosterol in liver (total animal liver), average", "setting": "Sitosterol Absorption; ApoE KO mice, 0.3 mg/kg/day by gavage in corn oil", "value": 0.1863, "unit": "%"}, {"measurement": "% of administered dose absorbed of [^3H]-sitosterol in liver (total animal liver), average", "setting": "Sitosterol Absorption; ApoE KO mice, 1 mg/kg/day by gavage in corn oil", "value": 0.1019, "unit": "%"}, {"measurement": "% of administered dose absorbed of [^3H]-sitosterol in liver (total animal liver), average", "setting": "Sitosterol Absorption; ApoE KO mice, 3 mg/kg/day by gavage in corn oil", "value": 0.0772, "unit": "%"}, {"measurement": "% of administered dose absorbed of [^3H]-sitosterol in liver (total animal liver), average", "setting": "Sitosterol Absorption; ApoE KO mice, 10 mg/kg/day by gavage in corn oil", "value": 0.0780, "unit": "%"}, {"measurement": "absorption and hepatic accumulation of sitosterol", "setting": "Sitosterol Absorption; C57BL/6J and Apo E KO mice, 0.3-10 mg/kg/day", "value": "dose dependently inhibit"}, {"measurement": "% of administered dose absorbed of [^3H]-sitosterol in liver (total animal liver), average", "setting": "Sitosterol Absorption; C57BL/6J mice, 0.3 mg/kg/day by gavage in corn oil", "value": 0.1093, "unit": "%"}, {"measurement": "% of administered dose absorbed of [^3H]-sitosterol in liver (total animal liver), average", "setting": "Sitosterol Absorption; C57BL/6J mice, 1 mg/kg/day by gavage in corn oil", "value": 0.0588, "unit": "%"}, {"measurement": "% of administered dose absorbed of [^3H]-sitosterol in liver (total animal liver), average", "setting": "Sitosterol Absorption; C57BL/6J mice, 3 mg/kg/day by gavage in corn oil", "value": 0.0489, "unit": "%"}, {"measurement": "% of administered dose absorbed of [^3H]-sitosterol in liver (total animal liver), average", "setting": "Sitosterol Absorption; C57BL/6J mice, 10 mg/kg/day by gavage in corn oil", "value": 0.0552, "unit": "%"}, {"measurement": "mean (S.E.) percent change from Baseline at endpoint in plasma Campesterol", "setting": "[1]; [2]", "value": "−24.3% (2.9%)"}, {"measurement": "mean (S.E.) percent change from Baseline at endpoint in plasma Sitosterol", "setting": "[1]; [2]", "value": "−21.0% (2.8%)"}, {"measurement": "percent change from Baseline at endpoint in LDL-C (mean, 95% CI)", "setting": "[1]; [2]", "value": "−13.6% (−21.7%, −5.5%)"}, {"measurement": "reduction in campesterol compared to placebo", "setting": "[1]; 10 mg per day", "value": "significant (p<0.001) reduction"}, {"measurement": "reduction in sitosterol compared to placebo", "setting": "[1]; 10 mg per day", "value": "significant (p<0.001) reduction"}, {"measurement": "tolerability", "setting": "[1]; 10 mg per day", "value": "well tolerated"}]}
